Measurements reported in patent US11746085B2, “Triphenylsulfonium salt compound, and uses thereof” (Changzhou Tronly Advanced Electronic Materials Co., Ltd., priority 2018, dated 2023).

assay: Dissolution performance test: solubility in 3-ethyl-3-hydroxymethyl oxetane monomer; format: physicochemical; conditions: Table 3; maximum number of grams dissolved in 100 g 3-ethyl-3-hydroxymethyl oxetane monomer at 20° C.
Protocol: The solubility in 3-ethyl-3-hydroxymethyl oxetane monomer was tested for Compound A-1 to A-38 and C-1 to C-25, and comparative compounds B-1 and B-2 as well as D-1 and D-2 in the present invention, calculated based on the maximum number of grams dissolved in 100 g solvent at 20° C.

SMILES | Solubility [g]
Cc1ccc([S+](c2ccccc2)c2ccccc2)cc1C(F)(F)F [Compound A-6] | 19.2
Cc1ccc([SH](c2ccc(Sc3ccc(C(=O)c4ccccc4)cc3)cc2)c2ccc(C)c(F)c2)cc1F [Compound A-30] | 27.8
Cc1ccc([S+](c2ccc(C)c(C#N)c2)c2ccc(C)c(C#N)c2)cc1C [Compound A-18] | 23.2
Cc1ccc([S+](c2ccc(C)c(F)c2)c2ccc(C)c(F)c2)cc1 [Compound A-3] | 22.5
Cc1ccc([S+](c2ccc(Sc3ccccc3)cc2)c2ccc(C)c(C(=O)Cl)c2)cc1C(=O)Cl [Compound A-19] | 24.3
Cc1ccc([S+](c2ccc(Oc3ccccc3)cc2)c2ccc(C)c(F)c2)cc1F [Compound A-13] | 23.8
Cc1ccc([S+](c2ccc(Sc3ccccc3)cc2)c2ccc(C)c([N+](=O)[O-])c2)cc1[N+](=O)[O-] [Compound A-27] | 22.3
CC(=O)c1cc([SH](c2ccc(Sc3ccccc3)cc2)c2ccc(C)c(C(C)=O)c2)ccc1C [Compound A-16] | 22.6
Cc1ccc([S+](c2ccc(C)c(F)c2)c2ccc(C)c(F)c2)cc1 [Compound A-11] | 21.6
Cc1ccc([S+](c2ccc(C)c(F)c2)c2ccc3oc4ccccc4c3c2)cc1F [Compound A-24] | 23.1
Cc1ccc([S+](c2ccc(Sc3ccccc3)cc2)c2ccc(C)c(F)c2)cc1F [Compound A-12] | 24.5
Fc1ccc([S+](c2ccccc2)c2ccc(Sc3ccccc3)cc2)cc1F (stereo not shown) [Compound A-20] | 19.8
Cc1ccc([S+](c2ccccc2)c2ccc(-c3ccccc3)cc2)cc1F (stereo not shown) [Compound A-21] | 20.1
Cc1ccc([S+](c2ccc(OCCO)cc2)c2ccc(C)c(F)c2)cc1F [Compound A-9] | 24.3
CCc1ccc([S+](c2ccc(OC)cc2)c2ccc(CC)c(F)c2)cc1F [Compound A-28] | 26.4
COc1ccc([S+](c2ccc(C(C)=O)cc2)c2ccc(C(C)=O)cc2)cc1F [Compound A-8] | 23.4

SMILES | Solubility [g]
Cc1ccc([S+](c2ccc(C)c(F)c2)c2ccc3c(c2)Cc2ccccc2-3)cc1F [Compound A-22] | 22.3
Cc1ccc([SH](c2ccc(C)c(F)c2)c2ccc(C)c(F)c2)cc1F [Compound A-10] | 23.8
Fc1cc([S+](c2ccc(Sc3ccccc3)cc2)c2ccc(Cc3ccccc3)c(F)c2)ccc1Cc1ccccc1 [Compound A-36] | 23.2
Cc1ccc([S+](c2ccccc2)c2ccccc2)cc1F [Compound A-4] | 19.5
Fc1ccc([S+](c2ccccc2)c2ccccc2)cc1F [Compound A-5] | 19.1
Cc1ccc([S+](c2ccc(Cc3ccccc3)cc2)c2ccc(C)c(F)c2)cc1F [Compound A-14] | 23.5
Cc1ccc(-[s+]2c3ccccc3c(=O)c3cc(C(C)C)ccc32)cc1F (stereo not shown) [Compound A-2] | 23.5
CCc1ccc([S+](c2ccc(OC)cc2)c2ccc(CC)c(C(F)(F)F)c2)cc1C(F)(F)F [Compound A-31] | 27.6
Cc1ccc([S+](c2ccc(/C=C/c3ccccc3)cc2)c2ccc(C)c(F)c2)cc1F [Compound A-37] | 22.4
Cc1ccc([S+](c2ccccc2)c2ccc(/C=C/c3ccccc3)cc2)cc1F (stereo not shown) [Compound A-38] | 23.5
CC(=O)c1ccc([S+](c2ccccc2)c2ccc(C)c(C#N)c2)cc1 (stereo not shown) [Compound A-7] | 20.6
Cc1ccc([S+](c2ccc(-c3ccccc3)cc2)c2ccc(C)c(F)c2)cc1F [Compound A-15] | 23.4
COc1ccc([S+](c2ccc(C)c(F)c2)c2ccc(C)c(F)c2)cc1 [Compound A-1] | 25.7
CCc1ccc([S+](c2ccc(OCCO)cc2)c2ccc(CC)c([N+](=O)[O-])c2)cc1[N+](=O)[O-] [Compound A-32] | 28.2
COc1ccc([S+](c2ccc(Sc3ccccc3)cc2)c2ccc(OC)c(F)c2)cc1F [Compound A-35] | 24.8

Next, values leading:

Solubility [g] | SMILES
20.6 | Cc1ccc([S+](c2ccccc2)c2ccccc2)cc1 [Compound B-2, reference compound]
12.1 | Fc1cccc([S+](c2ccccc2)c2ccccc2)c1 [Compound B-1, reference compound]

same assay, conditions: Table 4; maximum number of grams dissolved in 100 g 3-ethyl-3-hydroxymethyl oxetane monomer at 20° C.

SMILES | Solubility [g]
Cc1ccc([S+](c2ccc(Cc3ccc([S+](c4ccc(C)c([N+](=O)[O-])c4)c4ccc(C)c([N+](=O)[O-])c4)cc3)cc2)c2ccc(C)c([N+](=O)[O-])c2)cc1[N+](=O)[O-] [Compound C-9] | 23.1
Cc1ccc([S+](c2ccc(Sc3ccc([S+](c4ccc(C)c([N+](=O)[O-])c4)c4ccc(C)c([N+](=O)[O-])c4)cc3)cc2)c2ccc(C)c([N+](=O)[O-])c2)cc1[N+](=O)[O-] [Compound C-3] | 23.4

Now from value to molecule:

Solubility [g] | SMILES
20.7 | COc1ccc([S+](c2ccccc2)c2ccc(Sc3ccc([S+](c4ccccc4)c4ccc(OC)c(F)c4)cc3)cc2)cc1F (stereo not shown) [Compound C-18]
11.5 | Fc1cccc([S+](c2ccccc2)c2ccc(Sc3ccc([S+](c4ccccc4)c4cccc(F)c4)cc3)cc2)c1 [Compound D-1, reference compound]
21.5 | Cc1ccc([S+](c2ccccc2)c2ccc(Sc3ccc([S+](c4ccccc4)c4ccc(C)c(F)c4)cc3)cc2)cc1F (stereo not shown) [Compound C-17]
23.1 | Cc1ccc([S+](c2ccc(Sc3ccc([S+](c4ccc(C)c(C#N)c4)c4ccc(C)c(C#N)c4)cc3)cc2)c2ccc(C)c(C#N)c2)cc1C#N [Compound C-4]
23.7 | Cc1ccc([S+](c2ccc(Oc3ccc([S+](c4ccc(C)c(F)c4)c4ccc(C)c(F)c4)cc3)cc2)c2ccc(C)c(F)c2)cc1F [Compound C-8]
24.9 | Cc1ccc([S+](c2ccc(Sc3ccc([S+](c4ccc(C)c(C#N)c4)c4ccc(C)c(C#N)c4)cc3C)c(C)c2)c2ccc(C)c(C#N)c2)cc1C#N [Compound C-13]
24.4 | Cc1ccc([S+](c2ccc(Sc3ccc([S+](c4ccc(C)c(F)c4)c4ccc(C)c(F)c4)cc3)cc2)c2ccc(C)c(F)c2)cc1F [Compound C-1]
24.8 | CC(C)c1ccc([S+](c2ccc(-c3ccc([S+](c4ccc(C(C)C)c(F)c4)c4ccc(C(C)C)c(F)c4)cc3)cc2)c2ccc(C(C)C)c(F)c2)cc1F [Compound C-19]
24.3 | Cc1ccc([S+](c2ccc(Sc3ccc([S+](c4ccc(C)c(C(F)(F)F)c4)c4ccc(C)c(C(F)(F)F)c4)cc3)cc2)c2ccc(C)c(C(F)(F)F)c2)cc1C(F)(F)F [Compound C-2]
22.8 | CCn1c2cc([SH](c3ccc(C)c(C(F)(F)F)c3)c3ccc(C)c(C(F)(F)F)c3)ccc2c2ccc([SH](c3ccc(C)c(C(F)(F)F)c3)c3ccc(C)c(C(F)(F)F)c3)cc21 [Compound C-25]
23.6 | Cc1ccc([SH](c2ccc(C)c(F)c2)c2ccc3c(c2)oc2cc([SH](c4ccc(C)c(F)c4)c4ccc(C)c(F)c4)ccc23)cc1F [Compound C-23]
25.3 | Cc1ccc([S+](c2ccc(Sc3ccc([S+](c4ccc(C)c(F)c4)c4ccc(C)c(F)c4)cc3C)c(C)c2)c2ccc(C)c(F)c2)cc1F [Compound C-12]
25.1 | CCc1ccc([S+](c2ccc(Sc3ccc([S+](c4ccc(CC)c(F)c4)c4ccc(CC)c(F)c4)cc3)cc2)c2ccc(CC)c(F)c2)cc1F [Compound C-5]
22.4 | Cc1ccc([S+](c2ccc(/C=C/c3ccc([S+](c4ccc(C)c(F)c4)c4ccc(C)c(F)c4)cc3)cc2)c2ccc(C)c(F)c2)cc1F [Compound C-7]
25.3 | CCc1ccc([S+](c2ccc(Sc3ccc([S+](c4ccc(CC)c(C(F)(F)F)c4)c4ccc(CC)c(C(F)(F)F)c4)cc3)cc2)c2ccc(CC)c(C(F)(F)F)c2)cc1C(F)(F)F [Compound C-6]
21.0 | Cc1ccc([S+](c2ccc(-c3ccc([S+](c4ccc(C)c(C#N)c4)c4ccc(C)c(C#N)c4)cc3)cc2)c2ccc(C)c(C#N)c2)cc1C#N [Compound C-11]
23.5 | Cc1ccc([S+](c2ccc(C)c(F)c2)c2ccc3c(c2)sc2cc([S+](c4ccc(C)c(F)c4)c4ccc(C)c(F)c4)ccc23)cc1F [Compound C-24]
19.3 | Cc1ccc([S+](c2ccccc2)c2ccc(Sc3ccc([S+](c4ccccc4)c4ccc(C)cc4)cc3)cc2)cc1 [Compound D-2, reference compound]
24.4 | Fc1cc([S+](c2ccc(Sc3ccc([S+](c4ccc(Cc5ccccc5)c(F)c4)c4ccc(Cc5ccccc5)c(F)c4)cc3)cc2)c2ccc(Cc3ccccc3)c(F)c2)ccc1Cc1ccccc1 [Compound C-16]
21.4 | Cc1ccc([S+](c2ccc(-c3ccc([S+](c4ccc(C)c(F)c4)c4ccc(C)c(F)c4)cc3)cc2)c2ccc(C)c(F)c2)cc1F [Compound C-10]
23.4 | Cc1ccc([S+](c2ccc(C)c(F)c2)c2ccc3c(c2)Cc2cc([S+](c4ccc(C)c(F)c4)c4ccc(C)c(F)c4)ccc2-3)cc1F [Compound C-21]
24.5 | CCCCC1(CCCC)c2cc([S+](c3ccc(C)c(F)c3)c3ccc(C)c(F)c3)ccc2-c2ccc([S+](c3ccc(C)c(F)c3)c3ccc(C)c(F)c3)cc21 [Compound C-22]
22.1 | Cc1ccc([S+](c2ccccc2)c2ccc(Sc3ccc([S+](c4ccccc4)c4ccc(C)c(C(F)(F)F)c4)cc3)cc2)cc1C(F)(F)F (stereo not shown) [Compound C-20]
